In PMC5650372 (Oncotarget, 2017):
Like-named read-outs stand apart in the source and are kept apart here.

Assays:
pDNA-PK S2056 = assay: Western blot of cell-free NHEJ reaction (MCF7 nuclear extract); assay type: biochemical, human
Method: (§1) Nuclear protein (10-20 μg) prepared above was pre-treated with compounds as indicated on ice for 15 minutes. Twenty-five nanograms of EcoRI-digested pBluescript DNA (Stratagene, La Jolla, CA) were then added and the mixture was adjusted to 20 μL final volume in NHEJ buffer (50 mM Hepes-KOH pH 8.0, 40 mM KOAc, 1 mM Mg(OAc)2, 1 mM ATP, 0.1 mg/mL BSA, and 1 mM DTT). After incubation at 25°C for 60 minutes, the reaction was terminated by incubation with 1 μg/mL RNase A for 10 minutes followed by treatment with 2 mg/mL Protease K in 0.5% SDS at 55°C for 30 minutes. The reactions were run onto 0.8% agarose and the gel was stained with Sybr Green (S756, Invitrogen, Carlsbad, CA). For Western blots, an aliquot of the same reaction mixture described above was subjected to SDS-PAGE, transferred to the PVDF membrane, and immunoblotted with indicated antibodies.

pChk2 T68 = assay: as above; assay type: biochemical, human; settings: MCF7 nuclear extract, 0.05, 0.5 or 5 μM
Method: as §1

pATM S1981 = assay: as above; assay type: biochemical, human; settings: MCF7 nuclear extract with linear dsDNA
Method: as §1

NHEJ activity = assay: Reconstituted cell-free NHEJ assay (MCF7 nuclear extract); assay type: biochemical, human
Method: MCF7 human breast cancer cells (5-10 x 10^7 each) were incubated in 5 pellet volumes of cold hypotonic buffer (10 mM Hepes-KOH, pH 7.5, 1.5 mM MgCl2, 5 mM KCl, and 0.5 mM DTT) for 20 minutes and were homogenized in a tight-fitting glass dounce homogenizer for 10-20 strokes. The nuclei were then collected by low-speed centrifugation and nuclear proteins were extracted by high-salt buffer (50 mM Tris-HCl, pH 7.5, 1 M KCl, 2 mM EDTA, 1 mM DTT, and protease inhibitors). The extracted nuclear proteins were dialyzed against 1 L of dialysis buffer (20 mM Tris-HCl, pH 8.0, 20% glycerol, 0.1 M KOAc, 0.5 mM EDTA, and 1 mM DTT) for 1 hour and were used for the in vitro NHEJ assay.
as §1

DNA-PK = DNA-PK (Homo sapiens, UniProt P78527); assay: DNA-PK enzyme assay; assay type: biochemical; settings: average ± SEM; CC214-1 n=2
Method: (§2) mTOR, DNA-PK and PI3K-alpha assays were to determine percent inhibition. An IC50 value was then
(§3) performed as reported previously. estimated. […]

[1] = tested on: NCI-H1975 and SW1573 cells; assay: Clonogenic assay alone or with etoposide; assay type: cell-based, human; settings: for combination with 6.8 μM etoposide on colony formation: 10 μM compound, 4 hours; for effect on cell survival, single agent: 4 hours treatment alone
Method: Media were changed every three days. Plates were incubated for a total of about two weeks then fixed and stained using the DIFF QUIK staining kit. Colonies were imaged and counted.

[2] = tested on: NHEJ in PC3 prostate cancer cells; assay: 384-well image-based cellular NHEJ assay; assay type: cell-based; settings: Homo sapiens; PC3, n=3
Source text: (§4) ATM and ATR assay and IC50 determination Cellular NHEJ assay
(§5) HA-ATM and FLAG-ATR (HA-labeled ATM, and The experimental design is illustrated in FLAG-labeled ATR) were each transiently expressed in Supplementary Figure 4. Cal-51 breast cancer cells HEK293 cells (293FT cells, Invitrogen Cat: R700-07) were separately transfected with pEGFP plasmid (6085-using Lipofectamine as transfection reagent. Cells were 1, Clontech, Mountain View, CA) digested with either harvested 6 days post transfection and spun down to EcoRI (to measure NHEJ) or StuI (to measure transfection separate cells from media. Cells were then lysed using a efficiency) using a Amaxa cell line nuclearfector kit V lysis buffer (50 mM Tris buffer, (Tris(hydroxylmethyl)- (CCA-1003, Lonza). Immediately after the transfection, aminomethane, pH 7.5), 100 mM NaCl, 50 mM βGOP, the cells were treated with DMSO or compounds at 10% Glycerol, 0.5% Tween 20, 1 mM EDTA, 25 mM indicated concentrations for 24 hours and GFP-positive sodium fluoride (NaF), 20 nM microcystine, 2 mM cells were counted under a fluorescent microscope. NHEJ phenylmethylsulfonylfluoride (PMSF) and protease activity was calculated by the number of GFP-positive inhibitor cocktail) followed by sonication 3 times and a cells in cells transfected with pEGFP-EcoRI divided by final spin at 20,000 rpm for 30 minutes to generate a clear that in cells transfected with pEGFP-StuI, multiplied by lysate. To perform the immunoprecipitation, enzymes were 100. […]
(§6) or FLAG tags. Beads plus enzymes were then washed 3 developed. Different cell lines were transfected using times with lysis buffer and spun down at 1000 rpm for the procedure described above and subsequently seeded 1 minute. Beads plus enzymes were resuspended in lysis into 384-well plates at optimized density for individual buffer and kept at 4°C until assay. Assays for ATM and cell lines. Cells were then treated with compounds at ATR were conducted in a 33P radioactive assay format. increasing concentrations. GFP+ cells were imaged Assay buffer contained the following reagents: 1 mg/mL and quantitated using the IncuCyte (Essen Bioscience, GST-p53 (glutathione S-transferase–p53 fusion protein) Ann Arbor, MI). NHEJ activity was then normalized substrate (expressed in-house), 20 μg/mL calf thymus to the DMSO control and fitted to the Sigmoidal Dose-DNA activator (Sigma), 100 μg/mL BSA, 200 μM EGTA Response Model (IDBS XLFit Model 205; London, UK)

NHEJ in Cal-51 cells = assay: 384-well image-based cellular NHEJ assay; assay type: cell-based; settings: Homo sapiens; Cal-51, n=3
Source text: as §4, §5, §6

[3] = tested on: NHEJ in MDA-MB-231 breast cancer cells; assay: 384-well image-based cellular NHEJ assay; assay type: cell-based; settings: Homo sapiens; MDA-MB-231, n=3
Source text: as §4, §5, §6

[4] = tested on: NHEJ in HCT116 colorectal cancer cells; assay: 384-well image-based cellular NHEJ assay; assay type: cell-based; settings: Homo sapiens, HCT-116; HCT116, n=3
Source text: as §4, §5, §6

ATR [5] = molecular target: T1, ATR (Homo sapiens, UniProt Q13535); assay: ATR 33P radioactive kinase assay (immunoprecipitated FLAG-ATR); assay type: biochemical
T1 construct: made in house; host or cells: HEK293 (293FT cells, Invitrogen R700-07), transient transfection, immunoprecipitation on Protein G Sepharose
Method: deficient cell growth in vitro […]
incorporated in the corresponding no inhibitor control mTOR, DNA-PK and PI3K-alpha assays were to determine percent inhibition. An IC50 value was then performed as reported previously. estimated.
as §4
as §5, with “microscope.” for “microscope. NHEJ phenylmethylsulfonylfluoride (PMSF) and protease activity was calculated by the number of GFP-positive inhibitor cocktail) followed by sonication 3 times and a cells in cells transfected with pEGFP-EcoRI divided by final spin at 20,000 rpm for 30 minutes to generate a clear that in cells transfected with pEGFP-StuI, multiplied by lysate. To perform the immunoprecipitation, enzymes were 100.”

Rad51-foci in LoVo cells = assay: Rad51-foci immunofluorescence (homologous recombination); assay type: cell-based, human
mTOR kinase = mTOR kinase (Homo sapiens, UniProt P42345); assay: mTOR kinase enzyme assay; assay type: biochemical; settings: average ± SEM
Method: as §2, §3

ATM = molecular target: T2, ATM (Homo sapiens, UniProt Q13315); parameters: method as in earlier work; settings: Lit. reported value ref 3; cited from earlier work
T2 construct: made in house; host or cells: HEK293 (293FT cells, Invitrogen R700-07), transient transfection, immunoprecipitation on Protein G Sepharose

[6] = molecular target: T3, DNA-PKcs, XRCC4 and DNA ligase IV on DNA (Homo sapiens, UniProt P78527); assay: DNA end binding assay (MCF7 nuclear extract); assay type: biochemical; settings: 5 μM, MCF7 nuclear extract, 10, 30, 60 minutes
T3 construct: endogenous in cells; host or cells: MCF7 nuclear extract
Source text: One kb of DNA fragment, including an EcoRI sequence in the middle, was amplified by PCR using pEGFP as a template and a pair of biotinylated EGFP primers (5′-biotin-[…]-3′ and 5′-biotin-[…]-3′: Valuegene, San Diego, CA). The amplified DNA fragment was cleaved by EcoRI to produce two 0.5 kb biotinylated DNA fragments, and was purified using the QIAquick PCR purification kit (Qiagen). […] An aliquot of the reaction was removed at each time point to separate the supernatant and the beads. The supernatant was subjected to SDS-PAGE and immunoblotting with indicated antibodies. The beads were washed twice with 250 μL of IP buffer (25 mM Hepes-KOH, pH 7.5, 100 mM NaCl, 20% glycerol, 5 mM EDTA, 1 mM DTT, 0.05% Nonidet P-40, 10 mM NaF, and protease inhibitor mixture) and subjected to SDS-PAGE and immunoblotting with indicated antibodies.

ATR [7] = molecular target: T1, ATR; parameters: method as in earlier work; settings: Lit. reported value ref 3; cited from earlier work
[8] = concentration series (0.05 to 5 μM)

T1 sequence (Q13535 whole entry): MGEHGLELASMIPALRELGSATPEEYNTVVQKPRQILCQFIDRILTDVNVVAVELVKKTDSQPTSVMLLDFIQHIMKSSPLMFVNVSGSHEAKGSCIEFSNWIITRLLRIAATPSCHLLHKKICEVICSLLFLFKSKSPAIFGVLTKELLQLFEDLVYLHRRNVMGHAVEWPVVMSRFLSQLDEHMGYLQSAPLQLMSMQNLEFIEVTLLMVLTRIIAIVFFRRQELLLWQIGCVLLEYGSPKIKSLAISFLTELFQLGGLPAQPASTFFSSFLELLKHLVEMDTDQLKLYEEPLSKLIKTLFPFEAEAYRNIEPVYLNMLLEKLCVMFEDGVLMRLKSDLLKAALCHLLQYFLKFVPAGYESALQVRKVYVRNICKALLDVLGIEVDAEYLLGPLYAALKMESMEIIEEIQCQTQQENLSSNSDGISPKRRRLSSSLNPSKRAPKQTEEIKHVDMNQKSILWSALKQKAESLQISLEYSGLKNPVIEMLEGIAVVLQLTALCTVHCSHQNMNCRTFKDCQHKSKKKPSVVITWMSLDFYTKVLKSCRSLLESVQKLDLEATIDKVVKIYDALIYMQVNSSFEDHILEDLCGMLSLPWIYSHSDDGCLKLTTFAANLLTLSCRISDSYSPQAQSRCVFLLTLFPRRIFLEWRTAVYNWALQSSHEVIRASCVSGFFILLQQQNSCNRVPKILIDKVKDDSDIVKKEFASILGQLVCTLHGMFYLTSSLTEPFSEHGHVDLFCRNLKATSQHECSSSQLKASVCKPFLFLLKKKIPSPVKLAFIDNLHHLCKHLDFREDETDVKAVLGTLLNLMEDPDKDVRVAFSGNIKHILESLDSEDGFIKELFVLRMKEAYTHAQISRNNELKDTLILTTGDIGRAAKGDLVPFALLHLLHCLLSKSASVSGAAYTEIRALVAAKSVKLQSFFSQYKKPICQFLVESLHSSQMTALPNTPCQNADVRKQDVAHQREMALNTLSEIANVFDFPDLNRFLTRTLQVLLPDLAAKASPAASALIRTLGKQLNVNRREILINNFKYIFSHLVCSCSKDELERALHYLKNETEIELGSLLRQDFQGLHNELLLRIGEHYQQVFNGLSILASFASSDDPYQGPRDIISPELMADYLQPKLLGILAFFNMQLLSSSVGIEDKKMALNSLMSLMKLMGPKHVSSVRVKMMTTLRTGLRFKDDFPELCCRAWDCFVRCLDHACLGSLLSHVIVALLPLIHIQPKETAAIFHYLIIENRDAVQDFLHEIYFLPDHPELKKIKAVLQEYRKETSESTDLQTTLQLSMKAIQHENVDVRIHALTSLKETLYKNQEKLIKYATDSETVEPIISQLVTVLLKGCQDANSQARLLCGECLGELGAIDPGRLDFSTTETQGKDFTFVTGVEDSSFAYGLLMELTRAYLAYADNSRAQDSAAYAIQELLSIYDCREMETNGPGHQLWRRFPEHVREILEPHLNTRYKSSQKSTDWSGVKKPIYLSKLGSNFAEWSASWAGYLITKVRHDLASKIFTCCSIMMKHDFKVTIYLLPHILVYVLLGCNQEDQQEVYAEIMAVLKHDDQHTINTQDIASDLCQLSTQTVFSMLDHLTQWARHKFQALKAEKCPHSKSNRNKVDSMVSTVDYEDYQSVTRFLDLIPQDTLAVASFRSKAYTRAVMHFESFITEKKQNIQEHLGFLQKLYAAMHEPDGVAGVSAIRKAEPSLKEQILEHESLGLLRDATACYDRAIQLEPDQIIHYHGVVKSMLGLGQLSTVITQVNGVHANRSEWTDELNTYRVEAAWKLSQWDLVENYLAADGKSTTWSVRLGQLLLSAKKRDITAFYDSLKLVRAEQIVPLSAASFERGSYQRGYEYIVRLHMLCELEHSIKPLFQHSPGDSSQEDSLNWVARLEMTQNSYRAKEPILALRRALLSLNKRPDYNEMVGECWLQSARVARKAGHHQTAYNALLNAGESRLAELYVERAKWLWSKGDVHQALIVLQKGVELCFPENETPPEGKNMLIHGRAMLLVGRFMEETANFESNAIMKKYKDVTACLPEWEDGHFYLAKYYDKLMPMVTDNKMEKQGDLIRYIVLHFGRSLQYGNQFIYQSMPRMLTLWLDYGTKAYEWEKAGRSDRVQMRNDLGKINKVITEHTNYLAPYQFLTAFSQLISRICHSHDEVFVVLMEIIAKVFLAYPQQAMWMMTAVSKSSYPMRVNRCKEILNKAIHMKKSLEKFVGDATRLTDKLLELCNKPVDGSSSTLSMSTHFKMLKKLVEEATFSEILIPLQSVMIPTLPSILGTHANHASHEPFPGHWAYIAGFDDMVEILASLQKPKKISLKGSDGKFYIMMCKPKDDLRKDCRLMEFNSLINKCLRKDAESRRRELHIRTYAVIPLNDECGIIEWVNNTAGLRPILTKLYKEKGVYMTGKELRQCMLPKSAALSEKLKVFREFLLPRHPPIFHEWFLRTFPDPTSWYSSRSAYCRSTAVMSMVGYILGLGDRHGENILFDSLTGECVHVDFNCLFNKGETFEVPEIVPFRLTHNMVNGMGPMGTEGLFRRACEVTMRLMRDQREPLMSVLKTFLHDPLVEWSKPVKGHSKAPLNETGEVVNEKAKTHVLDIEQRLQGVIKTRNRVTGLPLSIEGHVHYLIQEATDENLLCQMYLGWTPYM

Row | SMILES | inhibition of pDNA-PK S2056, cell-free (pDNA-PK S2056) | inhibition of pChk2 T68, cell-free (pChk2 T68) | inhibition of pATM S1981, cell-free (pATM S1981) | inhibition of NHEJ activity, cell-free (NHEJ activity; [8]) | IC50 (DNA-PK) [µM] | combination with 6.8 μM etoposide on colony formation [1] | effect on cell survival, single agent [1] | IC50 [2] [nM] | IC50 (NHEJ in Cal-51 cells) [nM] | IC50 [3] [nM] | IC50 [4] [nM] | IC50 (mTOR kinase) [µM] | other results
1 | O=c1cc(-c2cccc3c2Sc2ccccc2S3)oc(N2CCOCC2)c1 [KU55933, 2-(4-morpholinyl)-6-(1-thianthrenyl)-4H-pyran-4-one] | not DNA-PK phosphorylation | concentration-dependent inhibition | efficiently inhibited | did not inhibit |  |  |  |  |  |  |  |  | 
2 | CC(C)(O)c1ccc(-c2cnc3c(n2)N(CC2CCOCC2)CC(=O)N3)cn1 [CC214-2, 6-(6-(2-hydroxypropan-2-yl)pyridin-3-yl)-4-((tetrahydro-2H-pyran-4-yl)methyl)-3,4-dihydropyrazino[2,3-b]pyrazin-2(1H)-one] | did not inhibit |  |  | not changed | > 10 | synergy was not observed | minimal effect on cell survival | > 10000 | > 10000 | > 10000 | > 10000 |  | IC50 (ATR [5]): > 3000 nM
3 | COc1cc([C@@H]2c3cc4c(cc3[C@@H](O[C@@H]3O[C@@H]5CO[C@@H](C)O[C@H]5[C@H](O)[C@H]3O)[C@H]3COC(=O)[C@H]23)OCO4)cc(OC)c1O [etoposide] |  |  |  |  |  |  | substantially impairs survival |  |  |  |  |  | 
4 | COc1cccc2c1C(=O)c1c(O)c3c(c(O)c1C2=O)C[C@@](O)(C(=O)CO)C[C@@H]3O[C@H]1C[C@H](N)[C@H](O)[C@H](C)O1 [doxorubicin] |  |  |  |  |  |  |  |  |  |  |  |  | Rad51-foci positive nuclei (HR efficiency) (Rad51-foci in LoVo cells; 0.1 μM doxorubicin only): 24%
5 | O=c1cc(N2CCOCC2)oc2c(-c3cccc4c3sc3ccccc34)cccc12 [NU7441, 8-(4-dibenzothienyl)-2-(4-morpholinyl)-4H-1-benzopyran-4-one] | also inhibited | also inhibited | reduction | Inhibition of NHEJ was also observed |  | synergistic effect | minimal effect on cell survival | 1030 ± 170 | 2560 ± 840 | 630 ± 80 | 6220 ± 6760 | 1.64 ± 0.2 | IC50 (ATM): > 100 µM; DNA-PKcs, XRCC4 and DNA ligase IV bound to DNA over time [6]: retained from 10 minutes through the end of the reaction at 60 minutes; IC50 (ATR [7]): > 100 µM; Rad51-foci positive nuclei (HR efficiency) (Rad51-foci in LoVo cells; 5 μM compound with 0.1 μM doxorubicin): 10.3%
6 | O=c1[nH]c2ncc(-c3ccc(-c4nc[nH]n4)cc3)nc2n1CCC1CCOCC1 [CC214-1, 6-(4-(1H-1,2,4-triazol-3-yl)phenyl)-1-(2-(tetrahydro-2H-pyran-4-yl)ethyl)-1,3-dihydro-2H-imidazo[4,5-b]pyrazin-2-one] | to a smaller extent |  |  |  | 0.141 |  |  |  |  |  |  | 0.002 ± 0.0002 | inhibition of NHEJ activity, cell-free (NHEJ activity; 5 μM): Minimal inhibition
